# Laboratory results: patent US12239644B2, “Composition for prevention or treatment of macular degeneration” (KYUNGPOOK NATIONAL UNIVERSITY INDUSTRY-ACADEMIC COOPERATION …, priority 2018, dated 2025)
# Where two headings read alike, the source gives them in different places.
# Tests used:
# [1] = system: HIF-1α; conditions: ARPE-19 cells, 1% oxygen 4-6 hours, fursultiamine-HCl 20, 50, 100 μM
# Method: After hypoxic exposure for 4-6 hours, the cells were lysed with a protein lysis buffer and protein isolation from the lysate was conducted.
# [2] = system: choroidal vascular endothelial cells; conditions: C57BL/6J choroid/sclera in Matrigel, day 3 to 5
# Method: Effects of fursultiamine on the growth of choroidal vascular endothelial cells were evaluated by the ex vivo mouse choroid sprouting assay for age-related macular degeneration.
# The eyeball was resected from C57BL/6J mice (Jackson Laboratory) at 3 or 4 weeks of age and the choroid/sclera was separated therefrom and sectioned into a size of 1 mm×1 mm. After being thawed on ice, Matrigel (Becton Dickinson, BD matrigel) in a liquid state was added in an amount of 300 μl to each well of 24-well plates and one of the cut choroid/sclera segments was seeded in the Matrigel in each well. Then, Matrigel was solidified for 10 min in a 37° C. incubator before adding 500 μl of an EGM medium (Lonza, Endothelial Growth Medium) to each well.
# Subsequently, the growth of vascular endothelial cells was induced in a 37° C. incubator. The medium was exchanged every two days with a fresh one containing 20 μM or 50 μM fursultiamine-HCl. The growth of vascular endothelial cells from the choroid was monitored from the day of seeding the choroid/sclera and observed on day 3 to 5. The sprouting distances were measured at a total of 4 sites using the ImageJ software and averaged. Statistical analyses were performed with the Prism program, with statistical significance defined as p<0.05.
# [3] = system: VEGF; conditions: ARPE-19 medium
# Method: ARPE-19 cells were seeded into 60-mm dishes and incubated overnight to adhere to the dishes. On the next day, the medium was replaced with serum-free medium. The cells were treated with fursultiamine-HCl (Toronto research chemical, F865230) or a vehicle (DMSO, Sigma-Aldrich) at the specific concentrations of 0 μM, 50 μM, and 100 μM and then exposed to 1% oxygen condition in a hypoxic chamber (INVIVO2 400, Baker). After hypoxic exposure for 4-6 hours, the cells were lysed with a protein lysis buffer and protein isolation from the lysate was conducted.
# After 12 hours later, the medium was recovered and secreted levels of VEGF in the medium were measured using human VEGF enzyme linked immunoassay (ELISA) (R&D systems). Quantitation methods and concentration calculations were conducted according to the manufacturer's manual. Statistical analyses were performed using the Prism program, with statistical significance defined as p<0.05.
# [4] = system: laser-induced CNV models; conditions: C57BL/6J mice, 50 mg/kg orally for 8 days, one week after laser
# Method: (§1) Statistical analyses were performed using the Prism program, with statistical significance defined as p<0.05.
# [5] = system: laser-induced choroid neovascularization (CNV) models; conditions: C57BL/6J mice, 50 mg/kg orally for 8 days, one week after laser
# Method: as §1
# [6] = system: ARPE-19 cells; conditions: ARPE-19, LPS 10 ug/ml + fursultiamine 50 uM (24 h)
# Method: To be specific, ARPE-19 cells were seeded onto 96-well XF plates, with the exchange of a fresh medium every two days. On day 5 after cell seeding, the cells were treated with 10 μg/ml LPS (lipopolysaccharides, Sigma-Aldrich) and then with 50 μM fursultiamine on day 6. On day 7, the medium was exchanged with an XF medium (Seahorse XF DMEM medium, Agilent) and the plates were left for 30 min at 37° C. in a non-CO2 incubator.
# In order to assess mitochondrial spare capacity, the following mitochondrial electron transport inhibitors and respiratory uncouplers were used in corresponding steps: oligomycin (2 μM), FCCP (0.5 μM), rotenone (2 μM), and antimycin A (2 μM).
# The oxygen consumption rate (OCR) was measured using an XFe96 analyzer (Agilent) according to the manufacturer's manual.
compound,measurement,setting,value
"CC(=C(CCO)SSCC1CCCO1)N(C=O)Cc1cnc(C)nc1N (stereo in doubt) [Fursultiamine, thiamine tetrahydrofurfuryl disulfide]",expression of HIF-1α upregulated in the hypoxic condition,[1],reduced
same,Sprouting range (pixels),[2]; Fursultiamine 20 uM,229.926 ± 28.348 pixels
same,Sprouting range (pixels),[2]; Fursultiamine 50 uM,126.713 ± 22.810 pixels
same,VEGF,"[3]; 1% O2, Fursultiamine 50 μM",163.4 ± 7.4 pg/mL
same,VEGF,"[3]; 1% O2, Fursultiamine 100 μM",47.4 ± 4.6 pg/mL
same,Lesion size (10^−3mm^2),[4],15.7 ± 1.0 10^−3mm^2
same,vascular leakage for the late phase,[5],decreased
same,OCR (%) (mitochondrial spare capacity),[6],189.438 ± 21.392%
